From patent publication US8927559B2, “Quinazolinone-type compounds as CRTH2 antagonists” (Merck Sharp & Dohme Corp., priority 2010, dated 2015)
Where “and” joins values, the source holds several entries; their conditions need not be identical. Equal values may be shown once.

Target: T1, CRTH2 receptor (hCRTH2) (Homo sapiens, UniProt Q9Y5Y4)
T1 construct: expressed in transfected cells; host or cells: HEK cells (HEK-hCRTH2 cell line), membranes
T1 sequence (Q9Y5Y4 1-395): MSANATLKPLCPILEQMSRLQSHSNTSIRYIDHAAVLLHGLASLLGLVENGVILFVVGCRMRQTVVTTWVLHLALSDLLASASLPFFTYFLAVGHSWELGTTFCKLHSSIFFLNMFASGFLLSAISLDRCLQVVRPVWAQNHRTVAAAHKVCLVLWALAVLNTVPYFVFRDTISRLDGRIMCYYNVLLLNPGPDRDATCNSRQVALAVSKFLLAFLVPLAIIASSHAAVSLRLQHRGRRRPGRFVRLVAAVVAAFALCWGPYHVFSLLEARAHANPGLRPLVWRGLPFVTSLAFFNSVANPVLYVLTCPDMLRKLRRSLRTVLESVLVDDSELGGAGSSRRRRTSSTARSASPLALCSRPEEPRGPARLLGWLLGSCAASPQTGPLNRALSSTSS
Experiment: Radioligand binding assay ([3H]PGD2 competition, membranes of HEK-hCRTH2 cell line)
Details: 3.0 nM [3H]PGD2, HEK-hCRTH2 membranes, 60 min, room temperature; read-out: Ki
Procedure: Competing ligands were diluted in dimethylsulfoxide (Me2SO) that was kept constant at 1% (v/v) of the final incubation volume. The reaction was initiated by the addition of 8-20 μg of membrane protein prepared from a HEK-hCRTH2 cell line. Total and non-specific binding were determined in the absence and the presence of […] PGD2, respectively. […] The reaction was routinely conducted for 60 min at room temperature and terminated by rapid filtration through prewetted (0.3% polyethyleneimine) 96-well printed filtermate (Wallac) using a Tomtec harvester. After washing with cold buffer, the filter was dried for 2 minutes in microwave, and Meltilex Scintillator sheet (Wallac) was melted on for 2 min.

Row | Ki | Structure (SMILES)
1 | ≤ 10 nM | O=C(O)CCCCc1nc2cc(-c3cc(C(O)c4ccc5ccccc5c4)on3)ccc2c(=O)n1-c1ccc(F)cc1 (stereo not shown) [Example 25i]
2 | ≤ 10 nM and 7.4 nM | C[C@@]1(Cc2ccccc2)CC(c2ccc3c(=O)n(-c4ccc(F)cc4)c(CCCCC(=O)O)nc3c2)=NO1 [Example 26, (R)-5-(7-(5-benzyl-5-methyl-4,5-dihydroisoxazol-3-yl)-3-(4-fluorophenyl)-4-oxo-3,4-dihydroquinazolin-2-yl)pentanoic acid]
3 | 10 to 50 nM | C[C@@]1([C@@H](O)c2ccccc2)CC(c2ccc3c(=O)n(-c4ccc(F)cc4)c(CCCCC(=O)O)nc3c2)=NO1 [Example 26C]
4 | 10 to 50 nM | C[C@]1([C@@H](O)c2ccccc2)CC(c2ccc3c(=O)n(-c4ccc(F)cc4)c(CCCCC(=O)O)nc3c2)=NO1 [Example 26D]
5 | ≤ 10 nM | C[C@]1(Cc2ccccc2)CC(c2ccc3c(=O)n(-c4ccc(F)cc4)c(CCCCC(=O)O)nc3c2)=NO1 [Example 26E]
6 | ≤ 10 nM | C[C@@]1([C@H](O)c2ccccc2)CC(c2ccc3c(=O)n(-c4ccc(F)cc4)c(CCCCC(=O)O)nc3c2)=NO1 [Example 26F]
7 | 10 to 50 nM | C[C@]1([C@H](O)c2ccccc2)CC(c2ccc3c(=O)n(-c4ccc(F)cc4)c(CCCCC(=O)O)nc3c2)=NO1 [Example 26G]
8 | ≤ 10 nM | C[C@@]1([C@H](O)c2ccccc2)CC(c2ccc3c(=O)n(-c4ccccc4)c(CCCCC(=O)O)nc3c2)=NO1 [Example 26J]
9 | 10 to 50 nM | C[C@]1([C@H](O)c2ccccc2)CC(c2ccc3c(=O)n(-c4ccccc4)c(CCCCC(=O)O)nc3c2)=NO1 [Example 26K]
10 | 10 to 50 nM | C[C@]1(Cc2ccccc2)CC(c2ccc3c(=O)n(-c4ccccc4)c(CCCCC(=O)O)nc3c2)=NO1 [Example 26L]
11 | ≤ 10 nM | C[C@@]1(Cc2ccccc2)CC(c2ccc3c(=O)n(-c4ccccc4)c(CCCCC(=O)O)nc3c2)=NO1 [Example 26M]
12 | 10 to 50 nM | C[C@@]1([C@@H](O)c2ccccc2)CC(c2ccc3c(=O)n(-c4ccccc4)c(CCCCC(=O)O)nc3c2)=NO1 [Example 26i]
13 | ≤ 10 nM | O=C(O)CCCCc1nc2cc(C3=NOC(c4nc5ccccc5o4)C3)ccc2c(=O)n1-c1ccc(F)cc1 (stereo not shown) [Example 28, 5-(7-(5-(benzo[d]oxazol-2-yl)-4,5-dihydroisoxazol-3-yl)-3-(4-fluorophenyl)-4-oxo-3,4-dihydroquinazolin-2-yl)pentanoic acid]
14 | ≤ 10 nM | O=C(O)CCCCc1nc2cc(-c3cc(-c4nc5ccccc5o4)on3)ccc2c(=O)n1-c1ccc(F)cc1 [Example 29]
15 | 10 to 50 nM and 22.1 nM | O=C(O)CCCCc1nc2cc(-c3cc(-c4ccccc4)no3)ccc2c(=O)n1-c1ccc(F)cc1 [Example 32]
16 | ≤ 10 nM | O=C(O)CCCCc1nc2cc(-c3cc(-c4ccc5ccccc5n4)on3)ccc2c(=O)n1-c1ccc(F)cc1 [Example 33]
17 | ≤ 10 nM | O=C(O)CCCCc1nc2cc(-c3noc(Cc4ccc(F)cc4)n3)ccc2c(=O)n1-c1ccc(F)cc1 [Example 36, 5-(7-(5-(4-fluorobenzyl)-1,2,4-oxadiazol-3-yl)-3-(4-fluorophenyl)-4-oxo-3,4-dihydroquinazolin-2-yl)pentanoic acid]
18 | ≤ 10 nM | O=C(O)CCCCc1nc2cc(C3=NOC[C@@H](c4ccc(F)cc4)N3)ccc2c(=O)n1-c1ccc(F)cc1 [Example 37, (R)-5-(3-(4-fluorophenyl)-7-(5-(4-fluorophenyl)-5,6-dihydro-4H-1,2,4-oxadiazin-3-yl)-4-oxo-3,4-dihydroquinazolin-2-yl)pentanoic acid]
19 | ≤ 10 nM | O=C(O)CCCCc1nc2cc(C3=NOC[C@H](c4ccc(F)cc4)N3)ccc2c(=O)n1-c1ccc(F)cc1 [Example 37E]
20 | 10 to 50 nM | O=C(O)CCCCc1nc2cc(-c3cc(CSc4nc5cc(OC(F)F)ccc5[nH]4)on3)ccc2c(=O)n1-c1ccc(F)cc1 [Example 39, 5-(7-(5-((5-(difluoromethoxy)-1H-benzo[d]imidazol-2-ylthio)methyl)isoxazol-3-yl)-3-(4-fluorophenyl)-4-oxo-3,4-dihydroquinazolin-2-yl)pentanoic acid]
21 | 10 to 50 nM | O=C(O)CCCCc1nc2cc(-c3cc(CS(=O)(=O)c4nc5cc(OC(F)F)ccc5[nH]4)on3)ccc2c(=O)n1-c1ccc(F)cc1 [Example 39E, 5-(7-(5-((5-(difluoromethoxy)-1H-benzo[d]imidazol-2-ylsulfonyl)methyl)isoxazol-3-yl)-3-(4-fluorophenyl)-4-oxo-3,4-dihydroquinazolin-2-yl)pentanoic acid]
22 | ≤ 10 nM | O=C(O)CCCCc1nc2cc(-c3cc(CSc4ccc(F)cc4)on3)ccc2c(=O)n1-c1ccc(F)cc1 [Example 39F]
23 | 10 to 50 nM | O=C(O)CCCCc1nc2cc(-c3cc(CSc4ccccn4)on3)ccc2c(=O)n1-c1ccc(F)cc1 [Example 39G]
24 | 10 to 50 nM | COc1ccc2[nH]c(SCc3cc(-c4ccc5c(=O)n(-c6ccc(F)cc6)c(CCCCC(=O)O)nc5c4)no3)nc2c1 [Example 39H]
25 | 10 to 50 nM | O=C(O)CCCCc1nc2cc(-c3cc(CS(=O)(=O)c4ccccn4)on3)ccc2c(=O)n1-c1ccc(F)cc1 [Example 39I]

Row | Ki | Structure (SMILES)
26 | ≤ 10 nM | COc1ccc2[nH]c(S(=O)(=O)Cc3cc(-c4ccc5c(=O)n(-c6ccc(F)cc6)c(CCCCC(=O)O)nc5c4)no3)nc2c1 [Example 39J]
27 | ≤ 10 nM | O=C(O)CCCCc1nc2cc(-c3cc(CSc4nc5ccccc5[nH]4)on3)ccc2c(=O)n1-c1ccc(F)cc1 [Example 39K]
28 | ≤ 10 nM | O=C(O)CCCCc1nc2cc(-c3cc(CS(=O)(=O)c4nc5ccccc5[nH]4)on3)ccc2c(=O)n1-c1ccc(F)cc1 [Example 39L]
29 | 10 to 50 nM | O=C(O)CCCCc1nc2cc(-c3cc(C[S+]([O-])c4nc5ccccc5[nH]4)on3)ccc2c(=O)n1-c1ccc(F)cc1 (stereo not shown) [Example 40, 5-(7-(5-((1H-benzo[d]imidazol-2-ylsulfinyl)methyl)isoxazol-3-yl)-3-(4-fluorophenyl)-4-oxo-3,4-dihydroquinazolin-2-yl)pentanoic acid]
30 | ≤ 10 nM | CCC1(c2ccccc2)CC(c2ccc3c(=O)n(-c4ccc(F)cc4)c(CCCCC(=O)O)nc3c2)=NO1 (stereo not shown) [Example 41]
31 | ≤ 10 nM | CC[C@H](c1ccc(F)cc1)c1cc(-c2ccc3c(=O)n(-c4ccc(F)cc4)c(CCCCC(=O)O)nc3c2)no1 [Example 43, (R)-5-(3-(4-fluorophenyl)-7-(5-(1-(4-fluorophenyl)propyl)isoxazol-3-yl)-4-oxo-3,4-dihydroquinazolin-2-yl)pentanoic acid]
32 | ≤ 10 nM | CC[C@@H](c1ccc(F)cc1)c1cc(-c2ccc3c(=O)n(-c4ccc(F)cc4)c(CCCCC(=O)O)nc3c2)no1 [Example 43D]
33 | 10 to 50 nM and 32.6 nM | C[C@@H](OCc1ccc(F)cc1)c1cc(-c2ccc3c(=O)n(-c4ccc(F)cc4)c(CCCCC(=O)O)nc3c2)no1 [Example 44]
34 | ≤ 10 nM | O=C(O)CCCCc1nc2cc(-c3cc(Cc4ccccc4)on3)ccc2c(=O)n1-c1ccc(F)cc1 [Example 100]
35 | ≤ 10 nM | O=C(O)CCCCc1nc2cc(-c3cc([C@@H](O)c4ccccc4)on3)ccc2c(=O)n1-c1ccc(F)cc1 [Example 101]
36 | ≤ 10 nM | O=C(O)CCCCc1nc2cc(-c3cc([C@H](O)c4ccccc4)on3)ccc2c(=O)n1-c1ccc(F)cc1 [Example 102]
37 | ≤ 10 nM | Cc1ccccc1-c1cc(-c2ccc3c(=O)n(-c4ccc(F)cc4)c(CCCCC(=O)O)nc3c2)no1 [Example 103]
38 | 10 to 50 nM | O=C(O)CCCCc1nc2cc(-c3noc(-c4ccc(C(F)(F)F)cc4)n3)ccc2c(=O)n1-c1ccc(F)cc1 [Example 104]
39 | ≤ 10 nM | O=C(O)CCCCc1nc2cc(-c3cn(-c4ccc(F)cc4)nn3)ccc2c(=O)n1-c1ccc(F)cc1 [Example 105]
40 | ≤ 10 nM | O=C(O)CCCCc1nc2cc(-c3cc(CN4CCc5ccccc54)on3)ccc2c(=O)n1-c1ccc(F)cc1 [Example 106]
41 | ≤ 10 nM | O=C(O)CCCCc1nc2cc(-c3cc(Cn4ccccc4=O)on3)ccc2c(=O)n1-c1ccc(F)cc1 [Example 107]
42 | ≤ 10 nM | CC(CCCc1nc2cc(C3=NOC(C)(c4nc5ccccc5o4)C3)ccc2c(=O)n1-c1ccc(F)cc1)C(=O)O (stereo not shown) [Example 108]
43 | 10 to 50 nM | CC(CCCc1nc2cc(C3=NOC(C)([C@H](O)c4ccccc4)C3)ccc2c(=O)n1-c1ccc(F)cc1)C(=O)O (stereo partly shown) [Example 109]
44 | 10 to 50 nM | CC(CCCc1nc2cc(C3=NOC(C)([C@@H](O)c4ccccc4)C3)ccc2c(=O)n1-c1ccc(F)cc1)C(=O)O (stereo partly shown) [Example 110]
45 | ≤ 10 nM | O=C(O)CCCCc1nc2cc(-c3cc(Cn4nnc5ccccc54)on3)ccc2c(=O)n1-c1ccc(F)cc1 [Example 111]
46 | ≤ 10 nM | N#CC1CC2(CC(c3ccc4c(=O)n(-c5ccc(F)cc5)c(CCCCC(=O)O)nc4c3)=NO2)C1 (stereo not shown) [Example 112]
47 | ≤ 10 nM | CC1(c2ccc(C#N)cc2)CC(c2ccc3c(=O)n(-c4ccc(Cl)cc4)c(CCCCC(=O)O)nc3c2)=NO1 (stereo not shown) [Example 113]
48 | ≤ 10 nM | CC1(c2ccc(C#N)cc2)CC(c2ccc3c(=O)n(-c4ccc(F)cc4)c(CCCCC(=O)O)nc3c2)=NO1 (stereo not shown) [Example 114]
49 | ≤ 10 nM | CC1(c2nc3ccccc3o2)CC(c2ccc3c(=O)n(-c4ccc(Cl)cc4)c(CCCCC(=O)O)nc3c2)=NO1 (stereo not shown) [Example 116]
